In publication PMC2838427 (British journal of haematology, 2009):
Values joined by “and” are separate entries in the source; they are usually repeats but may differ in a detail not shown here. Equal values may be shown once.

Assays:
[1] = patients with chronic myelogenous leukemia; ref Picard, et al 2007; cited from earlier work
[2] = system: ABCB1 gene expression in tumor biopsy samples; settings: in vivo
fetal hemoglobin (HbF) = experiment: Blood fetal hemoglobin; type: in vivo, patients
[3] = system: ABCB1 gene expression in PBMCs; settings: human, in vivo
[4] = system: histone H3 acetylation in peripheral blood mononuclear cells (PBMCs); settings: human, in vivo

## Cc1ccc(NC(=O)c2ccc(CN3CCN(C)CC3)cc2)cc1Nc1nccc(-c2cccnc2)n1 [imatinib]
[1]
  trough plasma threshold associated with response: 1002 ng/mL

## C/C=C1\NC(=O)[C@H]2CSSCC/C=C/[C@H](CC(=O)N[C@H](C(C)C)C(=O)N2)OC(=O)[C@H](C(C)C)NC1=O [romidepsin, (E)-(1S,4S,10S,21R)-7-[(Z)-Ethylidene]-4,21-diisopropyl-2-oxa-12,13-dithi a-5,8,20,23-tetraazabicyclo[8,7,6]-tricos-16-ene-3,6,9,22-pentanone]
[2]
  fold increase in ABCB1 in a biopsy sample, one patient: greater than 30
  fold increase in ABCB1 in biopsy samples, all other values: below 8
  increase in median ABCB1 level on-study to off study: 50%
  pre/post sample sets with greater than 50% increase in ABCB1 expression level: Fourteen
  pre/post samples with two-fold or greater increase in ABCB1 level: eight
Fetal hemoglobin (HbF); 61 patients
  median time to peak induction of HbF: 99 days
  range of time to peak induction of HbF: 27 to 295 days
Fetal hemoglobin (HbF); CR/PR
  HbF fold change, range: 1.69–23.00
Fetal hemoglobin (HbF); Final vs baseline, n=49
  patients with fold increase 2 ≤ x < 4 in hemoglobin F, number (%): 9 (18%)
  patients with fold increase x < 2 in hemoglobin F, number (%): 20 (41%)
  patients with fold increase x ≥ 4 in hemoglobin F, number (%): 20 (41 %)
Fetal hemoglobin (HbF); Peak vs baseline, n=52
  patients with fold increase 2 ≤ x < 4 in hemoglobin F, number (%): 7 (13%)
  patients with fold increase x < 2 in hemoglobin F, number (%): 14 (27%)
  patients with fold increase x ≥ 4 in hemoglobin F, number (%): 31 (60%)
Fetal hemoglobin (HbF); SD/PD
  HbF fold change, range: 0.95–11.50
Fetal hemoglobin (HbF); peak vs baseline
  patients with > 4-fold rise in HbF levels: 60%
Fetal hemoglobin (HbF); peak vs baseline, zero baselines reassigned 0.2%
  patients with two-fold or greater induction of fetal hemoglobin: 73%
[3]
  median fold increase in ABCB1 mRNA expression: 2.74 and 1.78
  patients having ABCB1 levels 2-fold or higher than baseline: 56% and 37%
  samples again showing less than 2-fold ABCB1 increase at 24 h: 71%
[4]
  patients with at least a 2-fold increase in global histone acetylation: 73%
  patients with fold increase x < 2 in histone acetylation, number (%): 21 (57%) and 11 (61%)
